These are literature values, as cited in patent US8288116B2, “Methods and compositions for isolating metastatic cancer cells, and use in measuring metastatic potential of a cancer thereof” (The Research Foundation of State University of New York, priority 2000, dated 2012).

The test system of the series is patients with cancer. Particulars: trials in patients with cancer.
For the compound endostatin, the “anti-metastatic, anti-invasive effects” value was “not produced obvious evidence”.
On to `CC1(C)SCCN(S(=O)(=O)c2ccc(Oc3ccncc3)cc2)[C@H]1C(=O)NO` [AG3340], for which the “anti-metastatic, anti-invasive effects” value is listed as “not produced obvious evidence”.
Consider `CNC(=O)[C@@H](NC(=O)[C@H](CC(C)C)[C@H](O)C(=O)NO)C(C)(C)C` [Marimastat], for which the “anti-metastatic, anti-invasive effects” value was “not produced obvious evidence”.
Take angiostatin: the “anti-metastatic, anti-invasive effects” value is given as “not produced obvious evidence”.
